Measurements from patent US20200223837A1, “BENZOFURAN AMIDES AND HETEROAROMATIC ANALOGUES THEREOF FOR USE IN THERAPY” (European Molecular Biology Laboratory, priority 2017, published 2020).

What was measured:
EGR1 promoter = test: EGR1 reporter assay (luciferase) in genomically engineered HeLa cell line; format: cell-based; settings: Homo sapiens; EGR1 reporter HeLa cells, luciferase activity after 24 hours with compound
Procedure, shortened: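 HeLa cells with eGFP-P2A-luciferase knocked in by CRISPR behind the endogenous EGR1 promoter, seeded 2000/well in DMEM with 10% FCS for 24 h. Cells treated 24 h with an 11-point 1:3 series from 100 μM initial DMSO dilution. Readout: luciferase bioluminescence.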

[1] = system: patient derived CLL samples; test: Growth inhibition of cells derived from patients with CLL; format: cell-based; settings: three days incubation, ATPlite
Experimental: HeLa, A549 and HCT116 cells were grown in high-glucose Dulbecco's Modified Eagle's Medium (DMEM, Sigma)+10% FBS+1% penicillin and streptomycin+1% L-glutamine, at 37° C. with 5% CO2 and 95% humidity. Cytotoxic screening of the ProQinase panel of 100 cell-lines was performed by ProQinase (Freiburg, Germany). Patient derived CLL isolates were prepared and screened as described by Dietrich et al. (S. Dietrich et al., J Clin Invest, 2018, 128(1), 427-445). Cell viability was determined after 48 hours using the ATP-based CellTiter Glo assay (Promega). Luminescence was measured with a Tecan Infinite F200 Microplate Reader (Tecan Group AG) and with an integration time of 0.2 seconds per well.
The response of 97 tumour samples derived from patients with CLL was investigated. All samples tumor cells were obtained from whole blood, subjected to Ficoll-Isopaque density centrifugation. CD19+B and CD3+ T cells were isolated by positive magnetic cell separation (Miltenyi Biotec). Sorted cells were checked for purity by fluorescence-activated cell sorting (FACS) with CD19/CD20 for healthy control samples and CD19/CD20/CD5 for CLL samples (BD Biosciences). Following sorting, all samples with a CD19/CD20/CD5 purity <98% were subjected to additional sorting, and the average final purity of all sorted samples was >99%. CLL samples with >[…] were not subject to purification.
Cells are incubated for three days with an eight-point three-fold titration series of the test compound from an initial concentration of 30 μM (2000 cells per well in a volume of 50 μl). Cellular viability is estimated by the addition of 25 μL of ATPlite (Perkin Elmer) with the resulting luminescence measured using an EnVision Xcite plate reader (Perkin Elmer).
In addition, the growth inhibitory response of a selection of 27 patient derived CLL isolates (S. Dietrich et al., J Clin Invest, 2018, 128(1), 427-445) against the compounds of examples 64 and 85 was evaluated using the procedure as described above.

pirin = target: T1, pirin (Homo sapiens, UniProt O00625); test: Surface plasmon resonance on immobilized pirin (Biacore); format: binding; parameters: hexahistidine tag (N); strep tag (C); host or cells: E. coli; settings: SPR, pirin on CM7 chip, PBS with 2% DMSO and 0.05% tween 20
T1 sequence (O00625 1-290): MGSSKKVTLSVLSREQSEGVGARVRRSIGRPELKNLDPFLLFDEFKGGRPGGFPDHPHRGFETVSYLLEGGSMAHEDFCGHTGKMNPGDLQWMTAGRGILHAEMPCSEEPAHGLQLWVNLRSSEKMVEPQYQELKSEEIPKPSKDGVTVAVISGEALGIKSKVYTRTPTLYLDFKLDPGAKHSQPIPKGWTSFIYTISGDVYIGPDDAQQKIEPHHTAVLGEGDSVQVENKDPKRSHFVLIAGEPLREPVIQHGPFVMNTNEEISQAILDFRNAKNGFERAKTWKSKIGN
Experimental: A control chip was also prepared under identical condition but without including pirin in the reaction. […] A series of increasing concentrations of compound, either the control ThPA or a compound of the present invention is then applied to the pirin modified CM7 chip in phosphate buffered saline containing 2% DMSO and 0.05% tween 20 and sensorgrams are recorded covering the association, equilibrium and dissociation phases of the response.

With `Cc1cccc2c(CC(=O)Nc3ncc(C(F)(F)F)s3)coc12` [Example 72, 2-(7-Methylbenzofuran-3-yl)-N-[5-(trifluoromethyl)thiazol-2-yl]acetamide] the EC50 (EGR1 promoter) was 10 to 10000 nM, the “patient samples killed with an EC50 less than 10 μM” value ([1]; 45 of 97 samples) was 46% and the “patient derived CLL samples with cytotoxic effect” value ([1]; 90 of 97 samples) was 93%. It also gave a Kd (pirin) of 1600 nM.
